Columns and labels:
[1] = system: bur-cucumber (Sicyos angulatus, SIYAN); test: Field trial, post-emergence weed control in corn (Jalisco, Mexico), visual rating; assay type: in vivo
Protocol: (§1) These trials were conducted under normal corn crop conditions. Trial sites were located in commercially grown corn in the Jalisco (Mexico) area. The corn crop was grown using normal cultural practices for fertilization, seeding, and maintenance to ensure good growth of the crop and the weeds. The trials were conducted using normal research methodology. Trial plots were between 6 to 7 meters (m) wide by 10 m long. All treatments were applied using a randomized complete block trial design with 3 or 4 replications per treatment. The trial sites had naturally occurring populations of weeds. The weed spectrum included, but was not limited to, redroot pigweed (Amaranthus retroflexus, AMARE), bur-cucumber (Sicyos angulatus, SIYAN). Treatments consisted of tank mixes of Tronador™ herbicide and atrazine applied in water. The application volumes were between 250 to 300 liters per hectare (L/ha). All applications were made using precision gas hand sprayers using a 3 m boom using flat fan 8002 nozzles to broadcast the treatments on the weeds.
(§2) The treated plots and control plots were rated blind at various intervals after application. Ratings were based on Percent (%) Visual weed control, where 0 corresponds to no injury and 100 corresponds to complete kill.
(§3) Colby's equation was used to determine the herbicidal effects expected from the mixtures (Colby, S. R. Weeds 1967, 15, 20-22. Calculation of the synergistic and antagonistic response of herbicide combinations).
(§4) The following equation was used to calculate the expected activity of mixtures containing two active ingredients, A and B: Expected=A+B−(A×B/100)
(§5) A=observed efficacy of active ingredient A at the same concentration as used in the mixture.
(§6) B=observed efficacy of active ingredient B at the same concentration as used in the mixture.

[2] = system: redroot pigweed (Amaranthus retroflexus, AMARE); test: as above; assay type: in vivo
Protocol: as §1, §2, §3, §4, §5, §6

[3] = 15 days after application, Atrazine 450 g ai/ha
[4] = 15 days after application, Atrazine 900 g ai/ha
[5] = 30 days after application, Atrazine 450 g ai/ha
[6] = 30 days after application, Atrazine 900 g ai/ha
[7] = 45 days after application, Atrazine 450 g ai/ha
[8] = 45 days after application, Atrazine 900 g ai/ha
[9] = 60 days after application, Atrazine 450 g ai/ha
[10] = 60 days after application, Atrazine 900 g ai/ha

## CCNc1nc(Cl)nc(NC(C)C)n1 [Atrazine, 6-chloro-N-ethyl-N′-(1-methylethyl)-1,3,5-triazine-2,4-diamine]
[1]; [3]
  SIYAN Obs - Percent control observed: 27.5%
[1]; [4]
  SIYAN Obs - Percent control observed: 42.5%
[1]; [5]
  SIYAN Obs - Percent control observed: 36.3%
[1]; [6]
  SIYAN Obs - Percent control observed: 60%
[1]; [7]
  SIYAN Obs - Percent control observed: 56.3%
[1]; [8]
  SIYAN Obs - Percent control observed: 66.3%
[1]; [9]
  SIYAN Obs - Percent control observed: 53.8%
[1]; [10]
  SIYAN Obs - Percent control observed: 65%
[2]; [3]
  AMARE Obs - Percent control observed: 35%
[2]; [4]
  AMARE Obs - Percent control observed: 46.3%
[2]; [5]
  AMARE Obs - Percent control observed: 77.5%
[2]; [6]
  AMARE Obs - Percent control observed: 82.5%
[2]; [7]
  AMARE Obs - Percent control observed: 91.3%
[2]; [8]
  AMARE Obs - Percent control observed: 94.8%
[2]; [9]
  AMARE Obs - Percent control observed: 91.3%
[2]; [10]
  AMARE Obs - Percent control observed: 97%

From US8445405B2, “Synergistic herbicidal compositions containing aminopyralid, 2,4-dichlorophenoxyacetic acid and atrazine” (Dow AgroSciences, LLC., priority 2010, dated 2013)
